Reference: ChEMBL document CHEMBL2177000, “Pharmacokinetic optimization of class-selective histone deacetylase inhibitors and identification of associated candidate predictive biomarkers of hepatocellular carcinoma tumor response” (J Med Chem, 2012)

Assays:
Histone deacetylase 5 = Histone deacetylase 5 (Homo sapiens, UniProt Q9UQL6); assay: Inhibition of HDAC5 using p53 (379 to 382 residues) based fluorogenic peptide substrate
Cytochrome P450 3A4 = Cytochrome P450 3A4 (Homo sapiens, UniProt P08684); assay: Inhibition of CYP3A4 in human liver microsomes in presence of NADPH by LC-MS/MS method; assay type: ADME, Microsome
[1] = target: T1, Protein deacetylase HDAC6 (Homo sapiens, UniProt Q9UBN7); assay: Inhibition of HDAC6 using p53 (379 to 382 residues) based fluorogenic peptide substrate
T1 sequence (Q9UBN7 whole entry): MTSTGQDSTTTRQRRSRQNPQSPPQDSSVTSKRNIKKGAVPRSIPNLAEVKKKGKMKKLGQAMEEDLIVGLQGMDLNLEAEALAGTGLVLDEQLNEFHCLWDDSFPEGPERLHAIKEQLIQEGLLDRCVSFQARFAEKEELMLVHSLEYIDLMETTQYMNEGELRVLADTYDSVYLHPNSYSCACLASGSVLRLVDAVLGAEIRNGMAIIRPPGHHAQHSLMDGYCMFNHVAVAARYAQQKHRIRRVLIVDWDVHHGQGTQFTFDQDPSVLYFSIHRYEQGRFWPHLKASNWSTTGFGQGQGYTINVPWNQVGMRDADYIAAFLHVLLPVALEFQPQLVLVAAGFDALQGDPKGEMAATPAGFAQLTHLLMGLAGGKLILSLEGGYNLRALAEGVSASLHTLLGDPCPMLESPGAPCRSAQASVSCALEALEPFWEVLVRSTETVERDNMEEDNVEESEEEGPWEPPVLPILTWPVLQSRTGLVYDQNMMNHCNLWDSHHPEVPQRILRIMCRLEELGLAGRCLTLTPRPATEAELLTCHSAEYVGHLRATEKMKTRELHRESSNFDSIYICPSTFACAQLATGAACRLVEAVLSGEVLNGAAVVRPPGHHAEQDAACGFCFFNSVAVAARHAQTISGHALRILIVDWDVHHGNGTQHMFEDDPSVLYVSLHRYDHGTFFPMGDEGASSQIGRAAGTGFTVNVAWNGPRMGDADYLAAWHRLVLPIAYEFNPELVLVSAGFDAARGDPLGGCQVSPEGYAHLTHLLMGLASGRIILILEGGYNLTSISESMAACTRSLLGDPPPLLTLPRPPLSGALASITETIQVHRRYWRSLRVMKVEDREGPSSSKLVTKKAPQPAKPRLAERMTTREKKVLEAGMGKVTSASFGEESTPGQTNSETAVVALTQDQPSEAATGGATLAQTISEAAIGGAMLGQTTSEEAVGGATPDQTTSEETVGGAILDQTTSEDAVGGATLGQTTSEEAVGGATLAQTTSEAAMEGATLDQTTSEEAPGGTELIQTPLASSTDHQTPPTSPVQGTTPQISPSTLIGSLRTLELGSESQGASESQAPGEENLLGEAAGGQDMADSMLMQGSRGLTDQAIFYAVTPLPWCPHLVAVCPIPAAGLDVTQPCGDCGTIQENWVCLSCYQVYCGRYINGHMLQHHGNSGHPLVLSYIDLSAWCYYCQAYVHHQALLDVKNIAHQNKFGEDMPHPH

Histone deacetylase 3 = Histone deacetylase 3 (Homo sapiens, UniProt O15379); assay: Inhibition of HDAC3 using p53 (379 to 382 residues) based fluorogenic peptide substrate
Histone deacetylase 9 = Histone deacetylase 9 (Homo sapiens, UniProt Q9UKV0); assay: Inhibition of HDAC9 using p53 (379 to 382 residues) based fluorogenic peptide substrate
Cytochrome P450 2C9 = Cytochrome P450 2C9 (Homo sapiens, UniProt P11712); assay: Inhibition of CYP2C9 in human liver microsomes in presence of NADPH by LC-MS/MS method; assay type: ADME, Microsome
Cytochrome P450 1A2 = target: T2, Cytochrome P450 1A2 (Homo sapiens, UniProt P05177); assay: Inhibition of CYP1A2 in human liver microsomes in presence of NADPH by LC-MS/MS method; assay type: ADME, Microsome
T2 sequence (P05177 whole entry): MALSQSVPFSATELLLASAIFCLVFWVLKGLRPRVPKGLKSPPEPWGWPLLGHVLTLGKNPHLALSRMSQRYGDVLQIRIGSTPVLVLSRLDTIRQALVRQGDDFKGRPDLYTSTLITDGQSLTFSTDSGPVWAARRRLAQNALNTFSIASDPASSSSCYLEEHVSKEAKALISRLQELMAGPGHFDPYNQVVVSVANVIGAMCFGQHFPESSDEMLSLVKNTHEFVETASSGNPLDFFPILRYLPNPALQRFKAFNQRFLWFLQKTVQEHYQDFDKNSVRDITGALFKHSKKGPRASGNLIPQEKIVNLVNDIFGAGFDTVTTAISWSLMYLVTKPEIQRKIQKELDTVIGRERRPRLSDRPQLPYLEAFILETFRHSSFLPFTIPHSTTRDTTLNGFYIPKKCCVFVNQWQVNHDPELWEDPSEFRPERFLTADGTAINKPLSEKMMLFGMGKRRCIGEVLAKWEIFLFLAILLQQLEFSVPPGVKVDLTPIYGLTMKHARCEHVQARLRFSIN

Histone deacetylase 11 = target: T3, Histone deacetylase 11 (Homo sapiens, UniProt Q96DB2); assay: Inhibition of HDAC11 using p53 (379 to 382 residues) based fluorogenic peptide substrate
T3 sequence (Q96DB2 whole entry): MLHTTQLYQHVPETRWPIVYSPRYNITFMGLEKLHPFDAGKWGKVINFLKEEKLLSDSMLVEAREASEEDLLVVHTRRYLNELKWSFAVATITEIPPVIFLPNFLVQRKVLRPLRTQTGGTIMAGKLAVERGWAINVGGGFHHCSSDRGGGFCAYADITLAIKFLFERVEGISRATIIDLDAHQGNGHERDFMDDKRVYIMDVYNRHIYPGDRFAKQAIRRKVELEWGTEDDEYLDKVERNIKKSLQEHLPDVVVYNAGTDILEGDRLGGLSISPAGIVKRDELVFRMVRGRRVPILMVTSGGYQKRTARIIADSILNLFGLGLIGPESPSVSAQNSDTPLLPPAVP

Histone deacetylase 4 = Histone deacetylase 4 (Homo sapiens, UniProt P56524); assay: Inhibition of HDAC4 using p53 (379 to 382 residues) based fluorogenic peptide substrate
Chain of Histone deacetylase 4 (P56524 whole entry, the tested form may be a part): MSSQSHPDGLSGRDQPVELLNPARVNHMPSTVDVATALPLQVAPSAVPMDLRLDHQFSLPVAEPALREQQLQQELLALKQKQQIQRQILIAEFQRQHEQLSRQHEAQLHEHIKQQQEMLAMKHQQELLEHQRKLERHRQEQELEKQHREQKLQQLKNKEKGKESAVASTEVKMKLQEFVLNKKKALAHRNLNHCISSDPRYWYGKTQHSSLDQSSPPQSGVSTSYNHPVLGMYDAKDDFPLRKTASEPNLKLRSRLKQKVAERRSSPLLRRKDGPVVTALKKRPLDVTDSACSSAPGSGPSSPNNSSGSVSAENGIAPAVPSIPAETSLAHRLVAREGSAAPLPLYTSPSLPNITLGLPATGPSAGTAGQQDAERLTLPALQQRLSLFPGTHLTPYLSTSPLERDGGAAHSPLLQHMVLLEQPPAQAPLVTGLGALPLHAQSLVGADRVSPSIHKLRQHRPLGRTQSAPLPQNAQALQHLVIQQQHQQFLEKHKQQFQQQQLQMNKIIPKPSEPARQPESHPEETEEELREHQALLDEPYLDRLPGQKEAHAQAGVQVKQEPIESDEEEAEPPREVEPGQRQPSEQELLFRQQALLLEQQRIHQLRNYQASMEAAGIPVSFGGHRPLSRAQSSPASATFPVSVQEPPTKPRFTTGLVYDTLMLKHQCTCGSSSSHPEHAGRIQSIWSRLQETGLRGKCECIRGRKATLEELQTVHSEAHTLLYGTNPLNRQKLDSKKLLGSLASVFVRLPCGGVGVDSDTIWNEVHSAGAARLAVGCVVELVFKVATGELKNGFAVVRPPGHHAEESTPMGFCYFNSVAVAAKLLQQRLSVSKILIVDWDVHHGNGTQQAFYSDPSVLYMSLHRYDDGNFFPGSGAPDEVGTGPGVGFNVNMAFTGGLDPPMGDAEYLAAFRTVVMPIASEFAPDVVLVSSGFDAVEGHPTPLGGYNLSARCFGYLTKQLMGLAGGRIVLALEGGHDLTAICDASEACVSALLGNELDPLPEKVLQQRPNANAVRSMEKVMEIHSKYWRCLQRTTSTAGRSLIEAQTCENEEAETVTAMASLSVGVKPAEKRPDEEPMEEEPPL

Chain of Histone deacetylase 9 (Q9UKV0 whole entry, the tested form may be a part): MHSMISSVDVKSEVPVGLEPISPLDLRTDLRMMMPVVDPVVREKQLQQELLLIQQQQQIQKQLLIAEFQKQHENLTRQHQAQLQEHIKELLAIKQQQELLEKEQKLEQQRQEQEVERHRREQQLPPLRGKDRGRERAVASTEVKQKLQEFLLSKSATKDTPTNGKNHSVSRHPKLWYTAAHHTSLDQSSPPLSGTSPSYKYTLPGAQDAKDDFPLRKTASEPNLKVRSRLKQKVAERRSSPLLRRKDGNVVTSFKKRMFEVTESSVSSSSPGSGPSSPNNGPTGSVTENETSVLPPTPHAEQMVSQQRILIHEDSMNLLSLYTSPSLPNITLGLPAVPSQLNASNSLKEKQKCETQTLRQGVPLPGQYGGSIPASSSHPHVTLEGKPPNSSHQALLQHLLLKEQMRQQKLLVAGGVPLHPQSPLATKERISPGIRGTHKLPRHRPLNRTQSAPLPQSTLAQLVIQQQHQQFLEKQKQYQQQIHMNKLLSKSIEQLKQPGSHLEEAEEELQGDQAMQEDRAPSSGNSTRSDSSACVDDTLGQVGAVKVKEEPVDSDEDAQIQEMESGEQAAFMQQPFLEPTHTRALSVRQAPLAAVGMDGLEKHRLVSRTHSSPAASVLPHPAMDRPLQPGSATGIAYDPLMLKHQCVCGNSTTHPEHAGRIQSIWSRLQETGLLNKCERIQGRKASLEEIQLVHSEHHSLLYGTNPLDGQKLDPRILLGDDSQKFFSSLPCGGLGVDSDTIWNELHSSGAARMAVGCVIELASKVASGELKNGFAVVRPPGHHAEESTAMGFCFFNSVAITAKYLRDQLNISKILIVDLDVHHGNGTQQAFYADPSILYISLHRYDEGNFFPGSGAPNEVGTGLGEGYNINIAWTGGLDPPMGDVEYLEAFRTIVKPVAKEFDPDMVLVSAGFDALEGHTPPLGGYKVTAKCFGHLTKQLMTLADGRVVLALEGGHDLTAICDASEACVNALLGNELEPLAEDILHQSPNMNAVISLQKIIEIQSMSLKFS
Chain of Cytochrome P450 2C9 (P11712 whole entry): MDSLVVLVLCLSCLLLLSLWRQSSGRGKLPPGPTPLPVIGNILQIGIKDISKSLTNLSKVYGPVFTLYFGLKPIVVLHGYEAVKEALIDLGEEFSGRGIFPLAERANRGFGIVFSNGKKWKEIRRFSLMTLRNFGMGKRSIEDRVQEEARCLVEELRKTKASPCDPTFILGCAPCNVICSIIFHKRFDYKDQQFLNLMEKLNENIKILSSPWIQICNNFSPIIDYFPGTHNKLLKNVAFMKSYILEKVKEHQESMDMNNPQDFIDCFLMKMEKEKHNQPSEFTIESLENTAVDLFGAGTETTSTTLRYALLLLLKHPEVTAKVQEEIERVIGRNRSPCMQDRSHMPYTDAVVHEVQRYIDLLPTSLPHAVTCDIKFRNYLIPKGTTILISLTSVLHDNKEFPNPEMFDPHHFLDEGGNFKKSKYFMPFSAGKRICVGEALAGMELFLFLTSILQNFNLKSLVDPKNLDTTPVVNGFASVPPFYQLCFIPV
Chain of Histone deacetylase 5 (Q9UQL6 whole entry, the tested form may be a part): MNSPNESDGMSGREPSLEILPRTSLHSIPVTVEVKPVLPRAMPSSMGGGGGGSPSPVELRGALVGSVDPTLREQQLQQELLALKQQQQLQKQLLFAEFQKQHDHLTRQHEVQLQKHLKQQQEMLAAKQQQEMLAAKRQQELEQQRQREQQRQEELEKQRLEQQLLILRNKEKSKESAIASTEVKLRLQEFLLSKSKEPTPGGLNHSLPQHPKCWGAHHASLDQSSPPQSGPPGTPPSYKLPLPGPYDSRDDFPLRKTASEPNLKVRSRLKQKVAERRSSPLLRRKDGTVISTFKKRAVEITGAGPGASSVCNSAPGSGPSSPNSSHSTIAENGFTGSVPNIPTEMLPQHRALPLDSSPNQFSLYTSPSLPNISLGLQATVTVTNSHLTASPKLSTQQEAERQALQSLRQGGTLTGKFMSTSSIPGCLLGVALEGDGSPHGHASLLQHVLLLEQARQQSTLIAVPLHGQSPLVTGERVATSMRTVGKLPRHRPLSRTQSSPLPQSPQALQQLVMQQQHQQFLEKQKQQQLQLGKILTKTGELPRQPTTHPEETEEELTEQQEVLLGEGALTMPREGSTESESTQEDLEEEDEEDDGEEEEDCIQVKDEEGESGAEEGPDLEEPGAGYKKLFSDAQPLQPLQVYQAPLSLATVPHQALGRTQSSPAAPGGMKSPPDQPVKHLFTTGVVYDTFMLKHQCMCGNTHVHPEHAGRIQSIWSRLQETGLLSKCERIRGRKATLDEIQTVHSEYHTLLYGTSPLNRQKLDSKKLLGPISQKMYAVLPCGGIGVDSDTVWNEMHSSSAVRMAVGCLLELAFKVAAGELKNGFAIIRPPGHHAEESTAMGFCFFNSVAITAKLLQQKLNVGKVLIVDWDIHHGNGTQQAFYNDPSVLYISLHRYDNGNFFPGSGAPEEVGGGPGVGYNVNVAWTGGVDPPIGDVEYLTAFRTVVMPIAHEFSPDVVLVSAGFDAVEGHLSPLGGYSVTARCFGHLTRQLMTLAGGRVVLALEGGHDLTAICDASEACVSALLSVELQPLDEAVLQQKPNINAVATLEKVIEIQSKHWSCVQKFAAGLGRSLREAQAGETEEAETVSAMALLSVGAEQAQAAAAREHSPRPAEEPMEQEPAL
Chain of Histone deacetylase 3 (O15379 whole entry, the tested form may be a part): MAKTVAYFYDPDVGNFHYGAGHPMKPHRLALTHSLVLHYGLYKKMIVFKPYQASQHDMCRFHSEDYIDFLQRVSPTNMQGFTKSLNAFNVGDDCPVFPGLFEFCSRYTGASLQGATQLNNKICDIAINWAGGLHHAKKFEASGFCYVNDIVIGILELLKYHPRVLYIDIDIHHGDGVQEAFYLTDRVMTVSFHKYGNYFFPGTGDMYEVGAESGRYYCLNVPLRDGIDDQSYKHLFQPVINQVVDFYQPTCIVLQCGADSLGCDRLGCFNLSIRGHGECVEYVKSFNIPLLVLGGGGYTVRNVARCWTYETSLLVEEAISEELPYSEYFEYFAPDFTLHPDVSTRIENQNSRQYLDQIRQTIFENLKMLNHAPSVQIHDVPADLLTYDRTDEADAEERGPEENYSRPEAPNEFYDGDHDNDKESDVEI
Chain of Cytochrome P450 3A4 (P08684 whole entry, the tested form may be a part): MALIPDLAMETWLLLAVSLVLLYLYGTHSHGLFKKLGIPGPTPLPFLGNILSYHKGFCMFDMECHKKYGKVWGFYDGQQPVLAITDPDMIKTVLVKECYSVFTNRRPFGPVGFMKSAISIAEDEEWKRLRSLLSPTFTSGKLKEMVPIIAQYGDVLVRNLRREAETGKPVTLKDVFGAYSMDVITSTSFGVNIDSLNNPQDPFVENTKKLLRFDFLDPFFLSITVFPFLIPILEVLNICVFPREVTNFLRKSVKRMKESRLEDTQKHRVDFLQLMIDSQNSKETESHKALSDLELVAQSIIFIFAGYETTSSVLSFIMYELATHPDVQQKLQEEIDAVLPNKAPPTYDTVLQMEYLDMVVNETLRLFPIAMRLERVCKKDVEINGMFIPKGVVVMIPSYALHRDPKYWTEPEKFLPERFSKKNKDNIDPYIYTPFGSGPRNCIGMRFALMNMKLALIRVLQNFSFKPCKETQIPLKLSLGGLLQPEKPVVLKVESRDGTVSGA

| IC50 (Histone deacetylase 5) | IC50 (Cytochrome P450 3A4) | IC50 [1] | IC50 (Histone deacetylase 3) | IC50 (Histone deacetylase 9) | IC50 (Cytochrome P450 2C9) | IC50 (Cytochrome P450 1A2) | IC50 (Histone deacetylase 11) | IC50 (Histone deacetylase 4) | SMILES |
| --- | --- | --- | --- | --- | --- | --- | --- | --- | --- |
| 3.5 µM | 14 µM | > 30 µM | 0.23 µM | 16 µM | 29 µM | 42 µM | 14 µM | 13 µM | CN1C[C@H](C(=O)Nc2ccc(Cl)cc2)[C@@H](c2ccc(/C=C/C(=O)Nc3ccccc3N)cc2)C1 |
| 1.1 µM | 21 µM | > 30 µM | 0.2 µM | 13 µM | 23 µM | 50 µM | 20 µM | 36 µM | CN1C[C@@H](C(=O)Nc2ccc(Cl)cc2)[C@H](c2ccc(/C=C/C(=O)Nc3ccccc3N)cc2)C1 |
| 5.3 µM | 4 µM | > 30 µM | 0.23 µM | 43 µM | 13 µM | 28 µM | > 30 µM | 46 µM | CN1C[C@H](C(=O)Nc2ccc(Cl)cc2)[C@@H](c2ccc(/C=C/C(=O)Nc3ccccc3N)cc2F)C1 (racemic) |
